The values that follow come from patent EP1914237B1 (priority 1999, dated 2001).

Read-outs that look alike come from different tables or passages of the source. Bounds are passed on as bounds.

Data set [1] relates to human lung fibroblast cells (MRC-5). Put plainly: Cytotoxicity of test compounds in vitro in MRC-5 cells (visual estimate of cell number). In kind it is cell-based. As for the experimental part: (§1) Cytotoxicity of test compounds in vitro: Subconfluent human lung fibroblast cells (MRC-5, American Type Culture Collection, Rockville, MD) in 24-well plates were treated with drugs diluted in E-MEM (Gibco BRL, Grand Island, NY) supplemented with 2% fetal bovine serum and antibiotics. After 5 days of incubation at 37°C, the cell monolayer was visually inspected under magnification and the concentration of drug which caused a 50% reduction in cell number was estimated.

The test system of the next data set is HSV-1. Put plainly: microbe, parasite or virus in culture. In kind it is cell-based.
The subject of data set [2] is HCMV.
For the next data set, the system named is Variola Major, Yamada. It is filed as cell-based. The note with it: Table 4; Vero cells; average of 3 determinations.
The test system of a further data set is Variola Minor, Garcia. In kind it is cell-based. The following applies: Table 4; Vero cells; average of 3 determinations.
The subject of data set [3] is Variola Major, Bangladesh. The experiment in a line: organism not typed. It is filed as cell-based. The note with it: read-out: EC50, µM Variola Major, Bangladesh.
For a further data set, the system named is Vero cells. The following applies: monkey.
The test system of another data set is Cowpox. Put plainly: organism not typed. It is filed as cell-based. The note with it: read-out: EC50, µM Cowpox.
The subject of a further data set is Vaccinia. The experiment in a line: microbe, parasite or virus in culture. In kind it is cell-based. The note with it: read-out: EC50, µM Vaccinia.
Data set [4] deals with Humans with Steroid-Induced Osteoporosis. Put plainly: Stimulation of bone formation in humans with steroid-induced osteoporosis. In kind it is in vivo. The following applies: oral 0.1 to 100 mg/kg/day, one month to one year; versus placebo.
Data set [5] has as its system HIV-1. Put plainly: microbe, parasite or virus in culture. The note with it: Human immunodeficiency virus 1.
The subject of data set [6] is HCMV. Put plainly: microbe, parasite or virus in culture. The following applies: Human betaherpesvirus 5, MRC5.
The subject of data set [7] is HIV-1.
Data set [8] in a line: Cytotoxicity of test compounds in vitro in MRC-5 cells (visual estimate of cell number). It is filed as cell-based, human. The note with it: human, mrc-5 cells; Table 2; MRC-5, 5 days at 37°C. The procedure: as §1
Data set [9] is described as follows: Cytotoxicity by the method of Hostetler et al. (HIV study). It is filed as cell-based. The note with it: human, ht4-6c cells; Table 6; cell line of the cytotoxicity test not stated.
The subject of the next data set is MLO-Y4 osteocytic cells. The note with it: pretreated 1 hour, then 6 hours with 10^-4 M dexamethasone; percentage of dead cells; p<0.05.
The next data set relates to Ovariectomized Rats. The note with it: subcutaneous 0 to 8 mg /kg/day, four to twelve weeks; versus ovariectomized controls.
Another data set relates to Calvarial cells. The experiment in a line: Dexamethasone-induced apoptosis in calvarial cells (trypan blue uptake). It is filed as cell-based, neonatal C57BL/6J mice. The note with it: pretreated 1 hour, then 6 hours with 10^-4 dexamethasone; p=<0.05.
The subject of another data set is cowpox virus. Put plainly: microbe, parasite or virus in culture. In kind it is cell-based. The following applies: for IC50: read-out: IC50 in cowpox infected cells.
Another data set relates to HFF Cells. The note with it: human.
Another data set relates to vaccinia virus. The experiment in a line: microbe, parasite or virus in culture. In kind it is cell-based. The following applies: Orthopoxvirus vaccinia, HFF; for IC50: read-out: IC50 against vaccinia virus; for EC50: read-out: Vaccinia EC50, µM.
The test system of the next data set is CEM. Put plainly: Cytotoxicity in CEM cells. The note with it: read-out: CEM, CC50; Table 1; rapidly dividing cells.
A further data set relates to Humans with Osteoporosis. The note with it: postmenopausal women, oral 0.1 to 100 mg/kg/day, two to three years; versus placebo.
Another data set is described as follows: in vitro. The note with it: monkey, vero cells.
Setting [10] is: Table 7, assessed as described in Example 17, 7200 min.
Setting [11] is: Table 4, Vero cells, average of 3 determinations.
Setting [12] is: Table 1, against HCMV, CC50 in CEM cells.
The mark [13] stands for this setting: Cowpox virus, HFF, read-out: Cowpox, EC50, µM.

Broadly, the CC50 is the concentration at which the toxic effect on the cells reaches its halfway point. By EC50 is commonly meant the concentration needed to bring the measured effect to its halfway point. Regarding `CCCCCCCCCCCCCCCCCCOCCOP(=O)(O)COC(CO)Cn1ccc(N)nc1=O` (stereo not drawn) [1-O-octadecylethanediol-2-CDV], the CC50 in data set [1] (Table 2, MRC-5, 5 days at 37°C) was 210 µM; in data set [1] (setting [10]) it was 210 µM. For the same molecule, the EC50 in the data set on HSV-1 (read-out: EC50) is 2 nM.

The molecule `CCCCCCCCCCCCCCCCOP1(=O)COC(Cn2ccc(N)nc2=O)CO1` (stereo not drawn) [Hexadecyl-cCDV] gave an EC50 with HCMV [2] of 40 nM. Also, the CC50 in data set [1] (Table 2, MRC-5, 5 days at 37°C) was 6.5 µM.

Regarding `CCCCCCCCCCCCCCCCOCCCOP(=O)(O)CO[C@H](CO)Cn1ccc(N)nc1=O` [HDP-CDV], the EC50 in the data set on Variola Major, Yamada is 0.0015 µM; in the data set with Variola Minor, Garcia, 0.0006 µM; in data set [3] (setting [11]) it was 0.0015 µM; with HCMV [2] it was 0.002 nM; in the data set with Cowpox (setting [11]) it was less than 0.03 µM; in the data set on Vaccinia (setting [11]) it was less than 0.03 µM. Also, the CC50 with Vero cells is greater than 100 nM; in [1] (Table 2, MRC-5, 5 days at 37°C) it was 10 µM; in [1] (setting [10]), 10 µM.

For “1-O-octadecyloxypropyl-amino-olpadronate”, in data set [4], the bone density entry is recorded as “bone density is increased” and the fractures result was “fractures are decreased”.

In the data set with HCMV [2], “1-O-octadecyl-sn-glyceryl-3-adefovir [1-O-octadecyl-sn-glycero-3-ADV]” gave an EC50 of 210 nM.

As for `CCCCCCCCCCCCCCCCCCOCCOP1(=O)COC(Cn2ccc(N)nc2=O)CO1` (stereo not drawn) [1-O-octadecylethanediol-2-cCDV], the EC50 amounted to 0.3 nM with HCMV [2] and 8 nM in the data set with HSV-1 (read-out: EC50). For the same molecule, the CC50 in data set [1] (Table 2, MRC-5, 5 days at 37°C) is 320 µM; in data set [1] (setting [10]) it was 320 µM.

Consider `CCCCCCCCCCCCCCCCOCCCOP(=O)(O)COCCn1cnc2c(N)ncnc21` [HDP-Adefovir], for which the EC50 worked out at 8 nM in the data set with HIV-1 [5] and 100 nM in the data set with HCMV [6]. Besides, the “Selectivity Index” value with HCMV [2] was found to be 65; in the data set on HIV-1 [7], 813. Also, the “EC50,µM” value in the data set with HIV-1 [7] was “more active and selective than adefovir”. The CC50 at 120 h in data set [8] is 6.5 µM. Further, in data set [9], the CC50 was determined as 6.5 µM.

As for `CCCCCCCCCCCCCCCCOCCCOP(=O)(O)C(O)(CCCN)P(=O)(O)O` (stereo not drawn) [HDP-alendronate, 1-O-hexadecylpropanediol-3-alendronate], the “concentration at which dexamethasone-induced apoptosis is inhibited” value in the data set on MLO-Y4 osteocytic cells is recorded as 10^-8 to 10^-5 M. For the same molecule, in the data set with Ovariectomized Rats, the “bone mass loss (ash weight of the femora)” value is given as “less bone mass loss than the ovariectomized controls”. Besides, the “concentration at which the dexamethasone-induced increase in % dead cells is abolished” value with Calvarial cells was ≥ 10^-8.

What is called IC50 is the concentration at which inhibition is half-maximal. For `Nc1ccn(C[C@H]2COP(=O)(O)CO2)c(=O)n1` [cCDV, cyclic cidofovir], the EC50 in data set [3] (Vero) was found to be 100 µM; in the data set on cowpox virus (setting [13]) it was 0.72 µM; in the data set on HCMV [6], 470 nM; in the data set with HSV-1 (Human alphaherpesvirus 1, MRC5), 2100 nM; in the data set with vaccinia virus it was 0.97 µM. Besides, the CC50 in the data set with Vero cells is greater than 100000 nM; in the data set on HFF Cells, greater than 100 µM; in [1] (Table 2, MRC-5, 5 days at 37°C), greater than 1000 µM; in data set [1] (setting [10]), greater than 1000 µM; in the data set with CEM, greater than 1000 µM. In the data set with HCMV [2] (setting [12]), the “Selectivity Index” value is listed as >2,100. Further, the IC50 in the data set on cowpox virus (Cowpox virus, HFF) stood at 720 nM; with vaccinia virus, 970 nM.

Turning to `CCCCCCCCCCCCCCCCCCOCCCOP1(=O)COC(Cn2ccc(N)nc2=O)CO1` (stereo not drawn) [1-O-octadecylpropanediol-3-cCDV], the results for the EC50 with HCMV [2] and in the data set with HSV-1 (read-out: EC50) were 0.3 nM and 330 nM, respectively. For the same molecule, the half-maximal cytotoxic concentration (CC50) is 320 µM in data set [1] (Table 2, MRC-5, 5 days at 37°C) and 320 µM in data set [1] (setting [10]).

Turning to `CCCCCCCCCCCCCCCCOCCCOP1(=O)COC(Cn2ccc(N)nc2=O)CO1` (stereo not drawn) [HDP-cCDV, 1-O-hexadecylpropanediol-3-cyclic CDV], the EC50 in data set [3] (setting [11]) was greater than 0.01 µM; in the data set on HCMV [2], 0.3 nM; in the data set with HCMV [2] (read-out: HCMV EC50), 0.5 nM; with cowpox virus (Table 3, preliminary, HFF cells, CPE reduction, read-out: Cowpox, EC50) it was less than 0.03 µM; in the data set with Cowpox (setting [11]), less than 0.03 µM; with HSV-1 (read-out: EC50), 30 nM. The CC50 with Vero cells is greater than 100 nM; in the data set on HFF Cells, greater than 100 µM; in data set [1] (Table 2, MRC-5, 5 days at 37°C) it was 320 µM; in data set [1] (setting [10]) it was 320 µM; with CEM it was 30 µM. Further, in the data set with cowpox virus (Table 3), the IC50 was less than 30 nM.

As to `CCCCCCCCCCCCCCCCCCOCCCOP(=O)(O)CO[C@H](CO)Cn1ccc(N)nc1=O` [1-O-octadecylpropanediol-3-CDV], the EC50 with HCMV [2] is 0.03 nM; with HSV-1 (read-out: EC50), 3 nM. Also, the CC50 is 32 µM in data set [1] (Table 2, MRC-5, 5 days at 37°C) and 32 µM in data set [1] (setting [10]).

Consider `CCCCCCCCCCCCCCCCCCOCCCOP(=O)(O)C(O)(CCCN)P(=O)(O)O` (stereo not drawn) [1-O-octadecyloxypropyl alendronate, 1-O-octadecyloxypropyl-alendronate], for which, in the data set on Humans with Osteoporosis, the fractures entry is on record as “fewer fractures” and the “rate of reduction in bone density” value is listed as “a lesser rate of reduction in bone density than the placebo group”.

`Nc1ccn(C[C@@H](CO)OCP(=O)(O)O)c(=O)n1` [CDV, cidofovir]: the concentration giving a half-maximal response (EC50) in data set [3] (Vero) is 100 µM; in the data set with cowpox virus (setting [13]), 2.1 µM; with Cowpox (Vero) it was 3.8 µM; in the data set with HCMV [6], 460 nM; in the data set on Vaccinia (Orthopoxvirus vaccinia, Vero) it was 2.2 µM; in the data set with HSV-1 (Human alphaherpesvirus 1, MRC5) it was 1200 nM. Besides, the EC50 in the data set with vaccinia virus stood at 1.8 µM. Moreover, in the data set with HCMV [2] (setting [12]), the “Selectivity Index” value was 1,900. Moreover, the IC50 in the data set with cowpox virus (Cowpox virus, HFF) amounted to 2100 nM; in the data set with vaccinia virus, 1800 nM. The CC50 in the data set on HFF Cells is 89.8 µM; in the data set “in vitro”, greater than 100 µM; in data set [1] (Table 2, MRC-5, 5 days at 37°C), greater than 1000 µM; in [1] (setting [10]), greater than 1000 µM; with CEM it was 857 µM.
